# Patent US20160136229A1, “MATERIALS FOR POSITIVE CATHEPSIN B MODULATION AND METHODS OF USE FOR TREATING MILD COGNITIVE IMPAIRMENT (MCI), EARLY DEMENTIA, A-SYNUCLEINOPATHY, TRAUMATIC BRAIN INJURY, CARDIOMYOPATHY, EYE DISEASE AND SKIN DAMAGE” (University of North Carolina at Pembroke, priority 2013, published 2016)
# Experiments:
# GluR1 = test: Immunoblot of postsynaptic marker GluR1 in hippocampal homogenates of Fischer rats; type: in vivo, rat; conditions: 27 mg/kg daily for 9 days; vs vehicle, p=0.0386
# Description: FIG. 3. Lysosomal modulator PADK dramatically up-regulates active cathepsin B levels in middle-aged Fischer rats, a model of MCI. The female rats were injected daily with vehicle (veh) or 27 mg/kg PADK for 9 days. Brain regions were dissected, homogenates prepared, and equal protein aliquots were assessed by immunoblot to label the 30-kDa active form of cathepsin B as well as actin load controls (A). The hippocampal homogenate samples were also stained for the postsynaptic marker GluR1 to assess for synaptic recovery in correspondence to cathepsin B regulation (A, lower blots).
# Brains were removed from the Fischer rats after the behavior studies in order to assess cathepsin B and synaptic marker levels. […] Cathepsin B immunoreactivity was increased 4- to 8-fold in hippocampal as well as neocortical homogenates, while non-lysosomal proteins remained unchanged (gel load controls). In addition to the correspondence with improved memory, there is evidence that the lysosomal modulation corresponds with synaptic recovery, assessing the postsynaptic marker GluR1 in hippocampus (FIG. 3A lower blots, and FIG. 3C). Without wishing to be bound by any scientific theory, the results support the hypothesis that lysosomal enhancement offsets the age-related cascade of microtubule destabilization, transport failure, synaptic decline, and cognitive impairment. […]
# Aβ1-42 peptide = conditions: cited from earlier work
# rats = test: Adverse effect observation after oral dosing in rats; type: in vivo, rat; conditions: 15 mg/kg twice a day, 10 days
# C57BL/6 mice = test: Safety evaluation in PADK-injected C57BL/6 mice (synaptic markers, blood markers, behavior, organ histology); type: in vivo, mouse
# Description: FIG. 11. Safety evaluation of PADK found no evidence of toxicity. […] Alanine aminotransferase (ALT) and blood urea nitrogen (BUN) measures in plasma were also unchanged (E), indicating no effect on major organs. […] Organ sections were H+E stained and tissue integrity was evaluated by a pathologist that was blinded to the treatment groups (G).
# Additional safety evaluation tests with PADK were conducted. […] Blood markers were also unchanged, indicating no effect on major organs (FIG. 11E).
# active cathepsin = target: T1, active cathepsin (Mus musculus, UniProt P10605); test: Active cathepsin in brain samples of PADK-injected C57BL/6 mice; type: in vivo; conditions: ip daily for 9 days
# T1 construct: from tissue; host or cells: brain and CNS regions of mice (PADK-treated mice, A53T transgenic and wild-type mice, C57BL/6 mice)
# bacterial = test: Bacterial cytotoxicity test; type: cell-based; conditions: tested at up to a 1000 times the IC50 of the toxin mitomycin C
# [1] = tested on: GluR1, GluR4, synaptophysin, and synapsin II; test: Synaptic marker immunoblot in hippocampal homogenates of A53T mice; type: in vivo, mouse; conditions: A53T mice injected daily for 11 days
# Description: FIG. 7. The cathepsin B modulator PADK promotes synaptic integrity in the model of early α-synucleinopathy. The A53T transgenic and wildtype (wt) mice were injected daily with PADK or vehicle for 11 days. […] Mean GluR1 immunoreactivities±SEM are shown (B); post hoc test compared to vehicle-treated transgenics: *p<0.05.
# Lysosomal enhancement also promoted protein clearance and synaptic protection in the Parkinson's disease transgenic mouse model expressing mutant A53T human α-synuclein (FIG. 4E). As in the other proteinopathy models, the reduction in human α-synuclein corresponded with active CatB levels that were increased 3-6 fold in brains of the PADK-treated A53T mice. […] The A53T mice were used at 7-8 months of age and behavioral studies confirmed the early α-synucleinopathy was pre-symptomatic, although a subtle change in anxiety behavior was detected (FIG. 5). PADK-mediated cathepsin B modulation was evident throughout the CNS, and the enhanced levels of the enzyme's active form corresponded with improved clearance of α-synuclein (FIG. 6) and recovery of several synaptic markers (FIG. 7A).
# cathepsin B = cathepsin B (Mus musculus, UniProt P10605); test: Cathepsin B / LAMP1 immunostaining of hippocampal tissue from PADK-treated mice; type: in vivo; design: from tissue; host or cells: mouse hippocampus (A1); conditions: i.p., 20 mg/kg/day×9 days
# Text: FIG. 1. Lysosomal modulation increases the cathepsin B content of lysosomes and reduces intracellular Δβ1-42 in the APPswe/PS1ΔE9 transgenic mouse model of Alzheimer's disease. […] Without wishing to be bound by any scientific theory, the latter steps may involve processing/trafficking of active intermediate (intCB) and mature forms (matCB) from early/late endosomes to lysosomes in order to promote protein degradation (A). […] The increase in organellar cathepsin B enzyme (red) in PADK-treated APPswe/PS1ΔE9 transgenic mice (tg) was associated with a decrease in intracellular Δβ1-42 in the CA1 pyramidal neurons (C). Arrows denote co-localization in lysosomes, capturing intact Δβ1-42 before being degraded by cathepsin B. View-field widths: 12 μm. wt, vehicle-treated wild-type mice.
# The lysosomal modulator Z-Phe-Ala-diazomethylketone (PADK) is administered to APPswe/PS1ΔE9 transgenic mice. Low-level PADK enhances cathepsin trafficking and maturation, thereby improving the clearance capacity of lysosomes (FIG. 1). It attenuates both PHF-tau and synaptic decline in the hippocampal slice model of protein accumulation (Bendiske and Bahr, 2003; Butler et al., 2005; Bahr, 2009). […] In PADK-treated transgenic mice, the increase in organellar cathepsin B was associated with a decrease in intracellular Aβ1-42 in pyramidal neurons (FIG. 1C).
# [2] = C57BL/6 mice, ip daily for 9 days
# cathepsin B, sequence (P10605 80-333): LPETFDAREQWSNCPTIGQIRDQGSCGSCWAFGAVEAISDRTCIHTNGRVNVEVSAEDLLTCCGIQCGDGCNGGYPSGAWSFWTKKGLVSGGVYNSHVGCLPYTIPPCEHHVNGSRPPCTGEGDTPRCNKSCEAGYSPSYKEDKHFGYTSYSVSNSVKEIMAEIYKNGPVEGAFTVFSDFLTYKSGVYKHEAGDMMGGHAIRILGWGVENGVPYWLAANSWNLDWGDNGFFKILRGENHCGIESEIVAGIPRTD
# T1 sequence (P10605 80-333 limits assumed): as the sequence (P10605 80-333) above
smiles,measurement,setting,value
"C[C@H](NC(=O)[C@H](Cc1ccccc1)NC(=O)OCc1ccccc1)C(=O)C=[N+]=[N-] [PADK, N-carbobenzyloxy-L-phenylalanyl-L-alanyl-diazomethylketone]",GluR1 levels in hippocampus,GluR1,increased
same,extracellular Aβ deposits,Aβ1-42 peptide; AD mouse models,significantly reduced
same,truncated Aβ38,Aβ1-42 peptide; AD transgenic mice,increase
same,synaptic integrity and cognitive ability,Aβ1-42 peptide; AD transgenic mouse models,improved
same,intracellular Aβ1-42 peptide in the hippocampus and other brain regions,Aβ1-42 peptide; two different transgenic mouse models of AD,reduced
same,active form of cathepsin B,Aβ1-42 peptide; two mouse models of AD,markedly up-regulated
same,adverse effects during behavioral tests,rats,no evidence of adverse effects
same,Alanine aminotransferase (ALT) in plasma,C57BL/6 mice; [2],unchanged
same,blood urea nitrogen (BUN) in plasma,C57BL/6 mice; [2],unchanged
same,synaptic markers,C57BL/6 mice; [2],unchanged
same,motor coordination rotarod test,C57BL/6 mice; prior behavioral tests,no adverse effects
same,spatial memory using conditioned place preference,C57BL/6 mice; prior behavioral tests,no adverse effects
same,"organ tissue integrity (H+E stained sections, blinded pathologist)",C57BL/6 mice; various organs,scored as normal
same,active cathepsin in brain samples,active cathepsin,dose-dependent increase
same,bacterial cytotoxicity,bacterial,did not cause bacterial cytotoxicity
same,"levels of synaptic markers GluR1, GluR4, synaptophysin, and synapsin II",[1],improved levels
same,"levels of cathepsin B in hippocampal neurons, co-localized with LAMP1-positive lysosomes",cathepsin B,enhanced levels of cathepsin B
